Two molecules from US5942534A, “Photodynamic therapy for the treatment of osteoarthritis” (The General Hospital Corporation, priority 1997, dated 1999) can be followed below.

Holding throughout (type): cell-based, calf
In assay [1] the test system is chondrocytes. As to the kind of experiment: PDT-induced cytotoxicity (MTT cellular viability) in chondrocytes. As to conditions: for toxic response / cellular viability (in words): 1, 5 or 10 J/cm^2 light; for decrease in cellular viability: BPD-MA concentrations exceeding 0.1 μg/ml, 690 nm, 72 hours after irradiation. Here is the method: (§1) Chondrocytes were harvested by established collagenase digestion techniques. Articular cartilage was aseptically dissected from the femoral condyles and patellas of calf knee joints. […] The resulting cell suspensions were filtered through a cell sieve and washed twice with serum free TCM. The cells were resuspended in the same medium containing 5% heat inactivated fetal calf serum (BioWhittaker, Walkerville, Md.) (FCS-TCM) for seeding. Cell number was determined using a hemocytometer. […] Cells were plated at a density of 1.5×10^6 cells/ml into Falcon 96 well cell culture plates (Becton Dickinson Labware, Franklin Lakes, N.J.) for the cytotoxicity and cell proliferation experiments and into Falcon 6 well cell culture plates for the Photosensitizer uptake studies. Chondrocyte cultures were maintained at 37° C. in a 5% CO2 incubator for 1 week prior to initiation of the photosensitization studies.
(§2) Photofrin® (PF) and Benzoporphyrin Derivative (BPD-MA) were obtained from Quadralogic Technologies (Vancouver, Canada). Chlorin e6 (Ce6) and chloroaluminum phthalocyanine (CASP) were obtained from Ciba Geigy (Basel, Switzerland) and Porphyrin Products (Logan, Utah), respectively. All photosensitizers were added to the chondrocytes in the dark 3 hours prior to light exposure. Photosensitizer stock solutions were prepared immediately prior to each experiment; serial dilutions were prepared using FCS-TCM. All irradiations were done at the appropriate excitation wavelengths for each photosensitizer (BPD-MA 690 nm; Ce6 658 nm; CASP 680 nm; PF 624 nm) using light provided by an argon ion pumped dye laser (Coherent, Palo Alto, Calif.). Following light exposure, control and irradiated cells were maintained for 72 hours prior to the assessment of cellular viability and proliferation rates. Cells were examined daily by light microscopy for morphologic changes.
Screening studies of toxicity determined the range of doses and light response for each photosensitizer. These predetermined ranges were used for all of the studies described. […] Dosages greater than 50 μg/ml were considered not clinically relevant and a dose range extending to 50 μg/ml was chosen for these studies.
PDT-induced cytotoxicity was determined 72 hours after irradiation. […] MTT is metabolized via mitochondrial dehydrogenase enzymes to a formazan dye which can be measured spectrophotometrically. Cytotoxicity is expressed as the percentage of formazan produced in cells treated with visible light of different wavelengths and intensities relative to control cells (% control). The data are expressed as the mean ±S.E.M. from triplicate experiments.

Assay [2] has as its system chondrocytes. As to the kind of experiment: Fluorescence of photosensitizers in chondrocytes (confocal microscopy).
In the next assay the test system is MMP2. The experiment in a line: Gelatin zymography, MMP2 after PDT. Here is the method:
as §1, §2
Aliquots of conditioned medium were mixed with 1 ml of acetone and maintained at -20° C. for 16-20 hours. The aliquots were microcentrifuged at 14,000×g for 15 minutes, the supernatant was removed and the precipitated protein was dried in a vacuum concentrator (Savant, Farmingdale, N.Y.) to remove residual acetone. Conditioned medium samples were mixed with sample buffer (0.4 M Tris pH 6.8, 5% SDS, 20% glycerol, 0.003% bromophenol blue) and applied directly, without boiling or reduction, to 10% acrylamide gels containing 1% gelatin. […] The gels were stained for 1 hour at room temperature in 30% methanol/10% acetic acid containing 0.5% coomassie blue R-250 and destained in the same solution without dye. The gelatinolytic activity of the proteins was evidenced by clear bands against the blue background of the stained gelatin.

Assay [3] has as its system chondrocytes. As to the kind of experiment: Cell proliferation ([^3 H]-thymidine incorporation) after PDT. Particulars: for effect on cellular proliferation rates (in words): [^3 H]-thymidine incorporation (FIG. 2); for IC50 (Table 2): concentration inhibiting [^3 H]-thymidine incorporation by 50%. Here is the method:
as §1, §2
Cell proliferation was determined by [^3 H]-thymidine incorporation for all chondrocyte cultures 72 hours after drug and/or light exposure. The cell cultures were labeled with 5 μCi/ml [^3 H]-thymidine (35 Ci/mmol) (ICN, Irvine, Calif.) in FCS-TCM. After incubation for 20 hours, the radioactive medium was removed and the cells were rinsed three times with phosphate buffered saline (PBS) to remove unincorporated label. The cells were then lysed with buffer containing 150 mM Tris pH 8.0, 200 mM sodium chloride, 10% triton X-100 and 1% SDS. [^3 H]-thymidine incorporation was determined by liquid scintillation methods and the data are expressed as mean % control ±S.E.M. of samples irradiated without photosensitizer addition.
(§3) Articular chondrocytes were maintained in primary culture for five days after plating. Photosensitizer stocks were serially diluted in FCS-TCM and added to triplicate wells. The cells were incubated in the dark for 3 hours. The photosensitizer-containing FCS-TCM was then removed and the cells were rinsed with 1 ml PBS. To digest the extracellular matrix, the cells were then immersed in 1 ml of a solution of 1 mg/ml collagenase and 0.1 mg/ml hyaluronidase in serum-free TCM. The resulting single cell suspensions were transferred to microfuge tubes and were centrifuged at 3.3×g for 5 minutes. The collagenase solution was removed and the cells were rinsed three times with calcium/magnesium-free PBS. Aliquots were taken for cell counting prior to cell lysis with 1 ml 0.1 N NaOH containing 1% SDS. Cell counting was performed by hemocytometer and Coulter counter. Fluorescent spectra of the cell lysates were obtained using a Spex FluoroMax spectrofluorometer (ISA Instruments, Edison, N.J.) at the appropriate excitation/emission wavelengths for each of the four photosensitizers studied. Fluorescence spectra were corrected for background fluorescence. Relative uptake values were obtained by regression analysis of standard curves of known photosensitizer concentrations. […] Values of uptake at the IC50 are shown in fg/cell.

The subject of the next assay is articular chondrocytes. As to the kind of experiment: Photosensitizer uptake studies. Particulars: for IC50 Uptake: uptake at the IC50, 3 hours incubation in the dark. Here is the method: as §1
as §3, with “fg/cell. Average protein per cell was calculated from the cell counts and protein concentration determined by the Lowry protein assay.” for “fg/cell.”

Setting [4] is: CASP parameters tested in zymography studies.

Take `[Cl][Al]1[n]2c3c4ccccc4c2N=C2N=C(N=c4c5ccccc5c([n]41)=NC1=NC(=N3)c3ccccc31)c1ccccc12` [CASP, chloroaluminum phthalocyanine]: in the assay with chondrocytes [1], the “toxic response / cellular viability (in words)” value is on record as “minimally toxic to articular chondrocytes”. Further, the “decrease in cellular viability by MTT production (in words)” value with chondrocytes [1] (setting [4]) is “no decrease in cellular viability was observed”. Moreover, the “saturation of toxicity effects (in words)” value with chondrocytes [1] (in the range studied (FIG. 1D)) was “No saturation effects were observed”. The “dose response in screening studies of toxicity (in words)” value with chondrocytes [1] (screening studies of toxicity to determine range of doses) was “no dose response was seen”. For the same molecule, the “cellular fluorescence intensity (in words)” value in the assay with chondrocytes [2] was “Minimal CASP fluorescence was observed at the drug concentrations studied”. Moreover, the “reduction in MMP2 levels (in words)” value in the assay with MMP2 (3.12 μg/ml, light dose of 10 J/cm^2, no decrease in cell viability) is “complete reduction in MMP2 levels”. Also, in the assay with MMP2 (CASP parameters tested), the “reductions in MMP2 levels (in words)” value is given as “significant reductions in MMP2 levels”. Besides, in the assay with MMP2 (drug concentrations greater than 0.2 μg/ml, light dose of 10 J/cm^2), the “decrease of MMP2 levels” value was 25%. In the assay with chondrocytes [3] (50 μg/ml, highest concentration of CASP investigated), the “reduction of [^3 H]-thymidine incorporation” value is given as 25%. Also, the “decrease by [^3 H]-thymidine incorporation (in words)” value with chondrocytes [3] (setting [4]) is given as “no decrease in cellular viability was observed”. Further, in the assay with chondrocytes [3], the “effect on cellular proliferation rates (in words)” value is listed as “least toxic” and the “IC50 (Table 2)” value is over 50 µg/mL. In addition, in the assay with articular chondrocytes, the “Photons Absorbed at IC50” value was 1.86 × 10^6 photons/cell and the “IC50 Uptake” value is recorded as 64.77 fg/cell.
Turning to Benzoporphyrin Derivative [BPD-MA], in the assay with chondrocytes [1], the “toxic response / cellular viability (in words)” value is listed as “most toxic responses in chondrocyte cultures”. Besides, the “decrease in cellular viability” value in the assay with chondrocytes [1] (1 J/cm^2 light) is listed as 60%. Moreover, the “decrease in cellular viability” value with chondrocytes [1] (5 or 10 J/cm^2 light) is 80%. Moreover, in the assay on chondrocytes [2], the “cellular fluorescence intensity (in words)” value is recorded as “strongest fluorescence signals”; the “fluorescence/uptake in differentiated vs dedifferentiated chondrocytes (in words)” value was “Fluorescence occurred uniformly in both differentiated and dedifferentiated chondrocytes”; the “subcellular fluorescence distribution (in words)” value was “diffuse cytoplasmic fluorescence for all drug concentrations studied. No nuclear or membrane staining was observed”. Further, the “MMP2 production (in words)” value in the assay on MMP2 (at a highly toxic dose) is “non-detectable”. The “reduction of MMP2 production” value in the assay on MMP2 (at the IC50 dose) is on record as “approximately 50%”. The “MMP2 production (in words)” value with MMP2 (dependence on cell killing) is “MMP2 production decreased as a function of cell killing”. Further, in the assay with chondrocytes [3] (72 hours after drug and/or light exposure, light dose not given), the “IC50, inhibition of chondrocyte proliferation ([^3 H]-thymidine incorporation)” value was determined as 0.0503 µg/mL. In the assay with chondrocytes [3], the “effect on cellular proliferation rates (in words)” value is recorded as “most toxic effects” and the “IC50 (Table 2)” value was 0.05 µg/mL. Further, in the assay with articular chondrocytes, the “Photons Absorbed at IC50” value is given as 5.86 × 10^6 photons/cell and the “IC50 Uptake” value turned out to be 1.02 fg/cell. Also, the “relative uptake (in words)” value in the assay with articular chondrocytes (at the IC50 concentrations, 3 hour incubation) is recorded as “lowest relative uptake”.
